The test relates to panel of GPCRs. The experiment in a line: GPCR selectivity panel. The test is classed as cell-based. As for the experimental part:
A homogeneous Time-Resolved Fluorescence (HTRF) assay (Perkin Elmer, Dynamic2 kit #) was used to assess receptor basal and inverse agonist activity at human GPR61, GPR62, and GPR101. For routine inverse agonist screening frozen CHO TREx human GPR61, GPR62 and GPR101 cells were used. Cells were thawed, resuspended in complete assay media (DMEM F-12, 10% HI FBS, 100 μg/mL Normocin, 700 μg/mL Hygromycin B and 15 μg/mL Blasticidin) containing 1ug/ml doxycycline, plated in white 384 well plates (Corning, 3570) at a density of 750 cells/well (25 μl/ well) and cultured at 37 °C in an incubator overnight. For studies assessing basal and inverse agonist activity at human GPR61 mutants, CHO-K1 cells were transiently transfected using Fugene6, plated in white 384 well plates (7500 cells/well) and grown overnight at 37 °C, as described for receptor expression studies. […] Data were analyzed using the ratio of fluorescence intensity at 620 and 665 nm for each well, extrapolated from the cAMP standard curve to express data as nM cAMP for each well. […]
7 recepto r activities wer e measured using FL IPR® Calcium Assays. […]
11 measured using a cal cium specific dye. […]
18 change in fluorescence from baseline over a 60 second period (Excitation 470- 495 nm; Emission […]
20 Tetra® instrument to evaluate antagonist activity, with the change in fluorescence from baseline
21 being measured over a 60 second period. […]

One may read the IC50 as the concentration needed to halve the response being measured. For the compound `CCOc1cc(C)nc(N(CCOC)S(=O)(=O)c2ccc(NCc3c(F)cncc3F)nc2OC)n1` [Compound 1], the IC50 (panel of GPCRs, read-out: off-target IC50 values) was greater than 10 µM. Besides, the “selectivity for GPR61” value (panel of common off-target GPCRs and related receptors GPR62 and GPR101) is listed as “selective”.

These data come from PMC10517971, “An inverse agonist of orphan receptor GPR61 acts by a G protein-competitive allosteric mechanism” (Nature Communications, 2023).
